Experimental findings from the supplement of paper PMC12137928 are described below.

The subject of the assay is HCT116. To be noted: 72 h. The gist of the method:
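After seeding at 250 cells per well in 1536-well plates, HCT116 cells were given 5 h to attach. CellTiter-Glo luminescence, scaled to 0% for vehicle and -100% for positive control, was pattern-corrected. Fitting with a four-parameter Hill model produced IC50 and maximal efficacy.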

Counter-ions that a name gives are not always drawn. A value given as a limit tells only on which side of the number the result lay.

For `O=C1CC[C@@]2(O)[C@H]3Cc4ccc(O)c5c4[C@@]2(CCN3CC2CC2)[C@H]1O5` [Naltrexone hydrochloride], the IC50 cell viability reads like this: (ICRF193 0 nM) over 45.8 µM; (ICRF193 200 nM) over 45.8 µM.

In the case of `N[C@@H]1CN(c2c(F)cc3c(=O)c(C(=O)O)cn([C@@H]4C[C@@H]4F)c3c2Cl)CC12CC2` [Sitafloxacin hydrate], the IC50 cell viability is over 45.8 µM (ICRF193 0 nM) and over 45.8 µM (ICRF193 200 nM).

Consider `CCN(CC)CCOc1ccccc1C(=O)CCc1ccccc1` [Etafenone], for which the IC50 cell viability by setting is: (ICRF193 0 nM) over 45.8 µM; (ICRF193 200 nM) over 45.8 µM.

Regarding `CC[N+](CC)(CC(=O)Nc1c(C)cccc1C)Cc1ccccc1` [Denatonium benzoate], the IC50 cell viability is over 45.8 µM (ICRF193 0 nM) and over 45.8 µM (ICRF193 200 nM).

Take `CCC(c1ccccc1)c1c(O)c2ccccc2oc1=O` (configuration not stated) [Phenprocoumon]: the IC50 cell viability was over 45.8 µM (ICRF193 0 nM) and over 45.8 µM (ICRF193 200 nM).

`COc1ccccc1OCC(O)COC(N)=O` (configuration not stated) [Methocarbamol]: the IC50 cell viability runs as follows: (ICRF193 0 nM) over 45.8 µM; (ICRF193 200 nM) over 45.8 µM.

As to `CCC[C@@H]1C[C@@H](C(=O)N[C@@H]([C@H]2O[C@H](SC)[C@H](O)[C@@H](O)[C@H]2O)[C@H](C)Cl)N(C)C1` [Clindamycin hydrochloride], the IC50 cell viability runs as follows: (ICRF193 0 nM) over 45.8 µM; (ICRF193 200 nM) over 45.8 µM.

Regarding `Cc1c(Cl)c(=O)oc2cc(OP(=O)(OCCCl)OCCCl)ccc12` [Haloxon], the IC50 cell viability is over 45.8 µM (ICRF193 0 nM) and over 45.8 µM (ICRF193 200 nM).

For `CC12CC3CC(C)(C1)CC(N)(C3)C2` [Memantine hydrochloride], the IC50 cell viability was over 45.8 µM (ICRF193 0 nM) and over 45.8 µM (ICRF193 200 nM).

The molecule `COc1ccc(-c2nc3cc(C4=NNC(=O)CC4C)ccc3[nH]2)cc1` (configuration not stated) [Pimobendan] returned an IC50 cell viability (ICRF193 0 nM) of over 45.8 µM and an IC50 cell viability (ICRF193 200 nM) of over 45.8 µM.

In the case of `COc1cccc(C(=O)CCN[C@@H](C)[C@H](O)c2ccccc2)c1` [l-Oxyfedrine hydrochloride], the IC50 cell viability by setting is: (ICRF193 0 nM) over 45.8 µM; (ICRF193 200 nM) over 45.8 µM.

In the case of `COc1ccccc1N1CCN(CCCNc2cc(=O)n(C)c(=O)n2C)CC1` [Urapidil hydrochloride], the IC50 cell viability reads like this: (ICRF193 0 nM) over 45.8 µM; (ICRF193 200 nM) over 45.8 µM.

In the case of `c1ccc(CN(CC2=NCCN2)c2ccccc2)cc1` [Antazoline hydrochloride], the IC50 cell viability is, setting by setting: (ICRF193 0 nM) over 45.8 µM; (ICRF193 200 nM) over 45.8 µM.

On to `CC(C(=O)O)c1ccc(/C=C2\CCCCC2=O)cc1` (configuration not stated) [Pelubiprofen], for which the IC50 cell viability reads like this: (ICRF193 0 nM) over 45.8 µM; (ICRF193 200 nM) over 45.8 µM.

`OC[C@H]1O[C@H](O[C@H]2[C@H](O)[C@@H](O)C(O)O[C@@H]2CO)[C@H](O)[C@@H](O)[C@@H]1O` (stereo partly drawn) [D-(+)-MALTOSE] registered an IC50 cell viability (ICRF193 0 nM) of over 45.8 µM and an IC50 cell viability (ICRF193 200 nM) of over 45.8 µM.

Take `Cc1nc2n(c(=O)c1CCN1CCC(c3noc4cc(F)ccc34)CC1)CCCC2` [Risperidone]: the IC50 cell viability is, setting by setting: (ICRF193 0 nM) over 45.8 µM; (ICRF193 200 nM) over 45.8 µM.

As to `Cc1ncc(COP(=O)(O)O)c(CN)c1O` [Pyridoxamine phosphate], the IC50 cell viability (ICRF193 0 nM) was over 45.8 µM and the IC50 cell viability (ICRF193 200 nM) was over 45.8 µM.

In the case of `C/C(=C\C(=O)OCCCCCCCCC(=O)O)C[C@@H]1OC[C@H](C[C@@H]2O[C@H]2[C@@H](C)[C@H](C)O)[C@@H](O)[C@H]1O` [Mupirocin], the IC50 cell viability is over 45.8 µM (ICRF193 0 nM) and over 45.8 µM (ICRF193 200 nM).

In the case of `COc1nccnc1NS(=O)(=O)c1ccc(N)cc1` [Sulfalene], the IC50 cell viability is, setting by setting: (ICRF193 0 nM) over 45.8 µM; (ICRF193 200 nM) over 45.8 µM.

Consider `CCOC(=O)OC(C)OC(=O)[C@@H]1N2C(=O)[C@@H](NC(=O)[C@H](N)c3ccccc3)[C@H]2SC1(C)C` (some centres not stated) [Bacampicillin hydrochloride], for which the IC50 cell viability reads like this: (ICRF193 0 nM) over 45.8 µM; (ICRF193 200 nM) over 45.8 µM.

On to `CC(=O)[C@H]1CC[C@H]2[C@@H]3C[C@H](C)C4=CC(=O)CC[C@]4(C)[C@H]3[C@@H](O)C[C@]12C` [Medrysone], for which the IC50 cell viability (ICRF193 0 nM) is over 45.8 µM and the IC50 cell viability (ICRF193 200 nM) was over 45.8 µM.
